From the NIST ThermoML archive (doi:10.1021/acs.jced.7b00650)

Conditions: Liquid; for viscosity: Capillary tube (Ostwald / Ubbelohde) method; for mass density: Vibrating tube method

CCCCC [pentane]
Conditions | mass density [kg/m3] | viscosity [mPa·s]
293.21 K, 2000 kPa | 628.05 | 0.232
293.21 K, 3998 kPa | 630.31 | 0.2382
293.21 K, 6000 kPa | 632.63 | 0.2439
293.21 K, 8003 kPa | 634.89 | 0.2495
293.21 K, 13008 kPa | 640.02 | 0.2637
293.21 K, 30000 kPa | 655.38 | 0.31
293.22 K, 10008 kPa | 636.91 | 0.2551
293.22 K, 16007 kPa | 643 | 0.2719
293.22 K, 19009 kPa | 645.81 | 0.2806
293.22 K, 22010 kPa | 648.59 | 0.2885
293.22 K, 25002 kPa | 651.19 | 0.2967
293.22 K, 28002 kPa | 653.72 | 0.3046
313.1 K, 2005 kPa | 608.49 | 0.1968
313.1 K, 6001 kPa | 613.99 | 0.2075
313.1 K, 7999 kPa | 616.58 | 0.2126
313.1 K, 10005 kPa | 619.09 | 0.218
313.1 K, 13001 kPa | 622.65 | 0.2259
313.1 K, 16005 kPa | 626.03 | 0.2334
313.1 K, 19002 kPa | 629.28 | 0.2409
313.1 K, 22002 kPa | 632.38 | 0.2485
313.1 K, 25004 kPa | 635.4 | 0.2558
313.1 K, 28002 kPa | 638.2 | 0.2628
313.1 K, 30005 kPa | 640.09 | 0.2676
313.11 K, 4002 kPa | 611.31 | 0.2023
333.01 K, 2009 kPa | 587.87 | 0.1679
333.01 K, 3997 kPa | 591.4 | 0.1737
333.01 K, 6002 kPa | 594.59 | 0.1787
333.01 K, 8008 kPa | 597.69 | 0.1837
333.01 K, 10001 kPa | 600.61 | 0.1888
333.01 K, 12998 kPa | 604.82 | 0.1958
333.01 K, 15996 kPa | 608.78 | 0.2029
333.01 K, 19000 kPa | 612.5 | 0.21
333.01 K, 21997 kPa | 616.1 | 0.217
333.01 K, 25000 kPa | 619.39 | 0.2239
333.01 K, 27997 kPa | 622.68 | 0.2306
333.01 K, 30006 kPa | 624.71 | 0.2348
353.12 K, 2006 kPa | 565.77 | 0.1452
353.12 K, 3997 kPa | 570.01 | 0.1504
353.12 K, 6002 kPa | 574.02 | 0.1557
353.12 K, 8003 kPa | 577.79 | 0.1606
353.12 K, 10008 kPa | 581.28 | 0.1654
353.12 K, 13000 kPa | 586.31 | 0.1724
353.12 K, 16001 kPa | 590.9 | 0.1792
353.12 K, 18997 kPa | 595.21 | 0.1857
353.12 K, 25002 kPa | 603.1 | 0.1987
353.12 K, 28005 kPa | 606.77 | 0.2047
353.12 K, 30001 kPa | 609.1 | 0.2087
353.13 K, 22000 kPa | 599.29 | 0.1922
